# Source: patent publication US10253002B2, “Compounds and methods of treating infections” (Neoculi Pty Ltd., priority 2013, dated 2019)
# Where “and” joins values, the source holds several entries; their conditions need not be identical. Identical values can stand only once.
# Tests used:
# Staphylococcus aureus = conditions: control strain Staphylococcus aureus ATCC 29213; cited from earlier work
# [1] = system: non-VRE Enterococcus faecalis USA01; experiment: MBC (CLSI methodology), Example 8; assay type: cell-based; conditions: for NCL812 MBC test, growth on Sheep Blood Agar / Number of Bacteria Growing after 24 hours per ml of sample: E. faecalis (USA01)
# [2] = Precipitation of NCL812 in assay media, Examples 2 and 3; assay type: physicochemical
# [3] = system: D39 cell membrane ultra-structure; experiment: Transmission electron microscopy morphometric analysis; assay type: cell-based, Streptococcus pneumoniae
# Method: Morphological appearance and morphometric analysis of the cell membrane was determined using transmission electron microscopy (TEM). Bacterial suspensions and 10 mL cultures of […] were prepared as before. […] Critical time points for TEM work were determined by analysing trends in the growth curves produced from the kill kinetics studies. […] Samples were fixed using modified protocols defined by a previous study examining cell wall ultrastructure of S. pneumoniae ([…]. et al. 2005. Infect Immun 73:4653-4667). […] The samples were then embedded in fresh LR White resin and incubated at 50° C. for 48 h. Sections were cut to 1 μm using a glass knife, stained with Toluidene Blue and viewed under a light microcrope at 400× to identify the presence of stained pneumococci. At least four ultra-thin sections were then cut to 90 nm using a diamond knife and placed on matrix grids, one section per grid. […] Stained sections were then placed on grids and viewed between 25000× and 130000× on a Philips CM100 Transmission Electron Microscope. Images were obtained at 130000× magnification and analysed using analySIS [Olympus Soft Imaging Systems].
# VRE isolates = experiment: MBC (CLSI methodology), Example 7; assay type: cell-based, Enterococcus spp.; set-up: key: M = many bacteria growing on the plate (too many to count)
# [4] = system: methicillin-susceptible S. aureus ATCC 49775; experiment: Time-kill assays (microdilution and 10 ml macrodilution), Example 4; assay type: cell-based, Staphylococcus aureus
# Method: Bactericidal activity in macrodilution assays was identified as a 3 log10 decrease from the initial inoculum size. Bacteria were cultured overnight at 37° C. on SBA. Colonies were suspended in broth and the turbidity was adjusted to a 0.5 McFarland standard to obtain a bacterial suspension of […]. Bacterial suspensions were incubated at 37° C. with shaking. Aliquots were removed at 0, 1, 2, 4, 8, 12, and 24 h after antimicrobial addition, diluted, plated onto SBA and incubated for 48 h at 37° C. for viable count determination. Turbidimetric growth curves for S. aureus were obtained for Microtiter plate assays by monitoring optical density changes using a Bio-Rad Benchmark Plus microplate spectrophotometer at 600 nm. Optical densities were measured at 0, 1, 2, 4, 8, 12, and 24 h after antimicrobial addition.
# [5] = system: cell wall synthesis in S. aureus ATCC 29213; experiment: Macromolecular synthesis assay: cell wall synthesis ([14C]N-acetylglucosamine); assay type: cell-based, Staphylococcus aureus
# Method: Cells were grown at 35° C. overnight on Trypticase Soy agar. A colony from the plate was used to inoculate 10 ml of Mueller Hinton broth II (MHBII), and the culture was grown to early exponential growth phase (OD600==0.2 to 0.3) while incubating in a shaker at 35° C. and 200 rpm.
# Bacterial cells in early exponential growth phase were transferred to M9 minimal medium and added to 1.5 mL eppendorf tubes (100 μL/tube) containing various concentrations of test compound or control antibiotics (5 μL) at 20× the final concentration in 100% DMSO as described above. Following a 5 min incubation at 37° C., [^14C]N-acetylglucosamine (0.4 μCi/reaction) was added to each tube and incubated for 45 min in a 37° C. heating block. Reactions were stopped through the addition of 100 μL of 8% SDS to each tube. Reactions were then heated at 95° C. for 30 min in a heating block, cooled, briefly centrifuged, and spotted onto pre-wet HA filters ([…]). After washing three times with 5 mL of 0.1% SDS, the filters were rinsed two times with 5 ml of deionized water, allowed to dry, and then counted using a Beckman LS3801 liquid scintillation counter.
# [6] = water containing 4% DMSO, following initial dilution in 100% DMSO; recent independent research; cited from earlier work
compound,measurement,setting,value
CC1(C)S[C@@H]2[C@H](NC(=O)[C@H](N)c3ccccc3)C(=O)N2[C@H]1C(=O)O [Ampicillin],Acceptable MIC range for Ampicillin,Staphylococcus aureus,0.5 to 2 µg/mL
"N=C(N/N=C/c1ccc(Cl)cc1)N/N=C/c1ccc(Cl)cc1 [NCL812, 1,3-bis[(E)-(4-chlorophenyl)methyleneamino]guanidine]","NCL812 MBC test, growth on Sheep Blood Agar",[1]; 4 μg/ml,+
same,Number of Bacteria Growing after 24 hours per ml of sample,[1]; 4 μg/ml,488 CFU/ml
same,"NCL812 MBC test, growth on Sheep Blood Agar",[1]; 8 μg/ml,+
same,"NCL812 MBC test, growth on Sheep Blood Agar",[1]; 16 μg/ml,+
same,"NCL812 MBC test, growth on Sheep Blood Agar",[1]; 32 μg/ml,+
same,Number of Bacteria Growing after 24 hours per ml of sample,[1]; 32 μg/ml,7 CFU/ml
same,"NCL812 MBC test, growth on Sheep Blood Agar",[1]; 64 μg/ml,+
same,Number of Bacteria Growing after 24 hours per ml of sample,[1]; 64 μg/ml,1 CFU/ml
same,"NCL812 MBC test, growth on Sheep Blood Agar",[1]; […],+
same,MBC test outcome,[1]; E. faecalis USA01,growth of bacteria was observed at all concentrations of NCL812 tested
same,Precipitation of NCL812 observed at,"[2]; MIC plates prepared identically without inoculum, MHB II",≥ 8 µg/mL
same,precipitation observed at,"[2]; Mueller Hinton broth II, DNA and RNA synthesis assays",4 to 8 fold the MIC
same,cell membrane thickness,"[3]; D39 exposed to 16 μg/mL NCL812 for 6 h, untreated 4.35±0.24",6.43±0.29 nm
same,width of periplasmic space,"[3]; D39 treated with 16 μg/mL NCL812 for 6 h, untreated 3.91±0.14",4.54±0.096 nm
same,"Periplasmic space, Mean ± SEM","[3]; D39 treated with 16 μg/ml NCL812 for 6 h, n = 11, growth control 3.91 ± 0.14 nm","4.54 ± 0.096 nm,"
same,"Cell membrane, Mean ± SEM","[3]; D39 treated with 16 μg/ml NCL812 for 6 h, n = 13, growth control 4.35 ± 0.24 nm","6.43 ± 0.29 nm,"
same,NCL812 MBC: number of bacteria growing after 24 hours per ml of sample,"VRE isolates; VRE 12c, NCL812 2 μg/ml",0 CFU/ml
same,NCL812 MBC: number of bacteria growing after 24 hours per ml of sample,"VRE isolates; VRE 12c, NCL812 16 μg/ml",M
same,NCL812 MBC: number of bacteria growing after 24 hours per ml of sample,"VRE isolates; VRE 12c, NCL812 32 μg/ml",M
same,NCL812 MBC: number of bacteria growing after 24 hours per ml of sample,"VRE isolates; VRE 12c, NCL812 64 μg/ml",M
same,NCL812 MBC: number of bacteria growing after 24 hours per ml of sample,"VRE isolates; VRE 12c, NCL812 […]",M
same,NCL812 MBC: number of bacteria growing after 24 hours per ml of sample,"VRE isolates; VRE 14t, NCL812 4 μg/ml",0 CFU/ml
same,NCL812 MBC: number of bacteria growing after 24 hours per ml of sample,"VRE isolates; VRE 14t, NCL812 […]",M
same,NCL812 MBC: number of bacteria growing after 24 hours per ml of sample,"VRE isolates; VRE 16c(dc), NCL812 16 μg/ml",M
same,NCL812 MBC: number of bacteria growing after 24 hours per ml of sample,"VRE isolates; VRE 16c(dc), NCL812 32 μg/ml",M
same,NCL812 MBC: number of bacteria growing after 24 hours per ml of sample,"VRE isolates; VRE 16c(dc), NCL812 64 μg/ml",M
same,NCL812 MBC: number of bacteria growing after 24 hours per ml of sample,"VRE isolates; VRE 16c(dc), NCL812 […]",M
same,NCL812 MBC: number of bacteria growing after 24 hours per ml of sample,"VRE isolates; VRE 16c, NCL812 4 μg/ml",820 CFU/ml and 790 CFU/ml
same,NCL812 MBC: number of bacteria growing after 24 hours per ml of sample,"VRE isolates; VRE 16c, NCL812 8 μg/ml",980 CFU/ml and 890 CFU/ml
same,NCL812 MBC: number of bacteria growing after 24 hours per ml of sample,"VRE isolates; VRE 16c, NCL812 16 μg/ml",M
same,NCL812 MBC: number of bacteria growing after 24 hours per ml of sample,"VRE isolates; VRE 16c, NCL812 32 μg/ml",M
same,NCL812 MBC: number of bacteria growing after 24 hours per ml of sample,"VRE isolates; VRE 16c, NCL812 64 μg/ml",M
same,NCL812 MBC: number of bacteria growing after 24 hours per ml of sample,"VRE isolates; VRE 16c, NCL812 […]",M
same,NCL812 MBC: number of bacteria growing after 24 hours per ml of sample,"VRE isolates; VRE 19t, NCL812 4 μg/ml",0 CFU/ml
same,NCL812 MBC: number of bacteria growing after 24 hours per ml of sample,"VRE isolates; VRE 19t, NCL812 8 μg/ml",0 CFU/ml
same,NCL812 MBC: number of bacteria growing after 24 hours per ml of sample,"VRE isolates; VRE 19t, NCL812 […]",M
same,NCL812 MBC: number of bacteria growing after 24 hours per ml of sample,"VRE isolates; VRE 23c, NCL812 2 μg/ml",0 CFU/ml
same,NCL812 MBC: number of bacteria growing after 24 hours per ml of sample,"VRE isolates; VRE 23c, NCL812 64 μg/ml",M
same,NCL812 MBC: number of bacteria growing after 24 hours per ml of sample,"VRE isolates; VRE 23c, NCL812 […]",M
same,NCL812 MBC: number of bacteria growing after 24 hours per ml of sample,"VRE isolates; VRE 25c, NCL812 8 μg/ml",M
same,NCL812 MBC: number of bacteria growing after 24 hours per ml of sample,"VRE isolates; VRE 25c, NCL812 16 μg/ml",M
same,NCL812 MBC: number of bacteria growing after 24 hours per ml of sample,"VRE isolates; VRE 25c, NCL812 32 μg/ml",M
same,NCL812 MBC: number of bacteria growing after 24 hours per ml of sample,"VRE isolates; VRE 25c, NCL812 64 μg/ml",M
same,NCL812 MBC: number of bacteria growing after 24 hours per ml of sample,"VRE isolates; VRE 25c, NCL812 […]",M
same,NCL812 MBC: number of bacteria growing after 24 hours per ml of sample,"VRE isolates; VRE 26c(dc), NCL812 8 μg/ml",4000 CFU/ml and 3500 CFU/ml
same,NCL812 MBC: number of bacteria growing after 24 hours per ml of sample,"VRE isolates; VRE 26c(dc), NCL812 16 μg/ml",M
same,NCL812 MBC: number of bacteria growing after 24 hours per ml of sample,"VRE isolates; VRE 26c(dc), NCL812 32 μg/ml",M
same,NCL812 MBC: number of bacteria growing after 24 hours per ml of sample,"VRE isolates; VRE 26c(dc), NCL812 64 μg/ml",M
same,NCL812 MBC: number of bacteria growing after 24 hours per ml of sample,"VRE isolates; VRE 26c(dc), NCL812 […]",M
same,NCL812 MBC: number of bacteria growing after 24 hours per ml of sample,"VRE isolates; VRE 35t, NCL812 2 μg/ml",0 CFU/ml
same,NCL812 MBC: number of bacteria growing after 24 hours per ml of sample,"VRE isolates; VRE 35t, NCL812 4 μg/ml",0 CFU/ml
same,NCL812 MBC: number of bacteria growing after 24 hours per ml of sample,"VRE isolates; VRE 35t, NCL812 8 μg/ml",0 CFU/ml
same,NCL812 MBC: number of bacteria growing after 24 hours per ml of sample,"VRE isolates; VRE 37c, NCL812 4 μg/ml",100 CFU/ml and 50 CFU/ml
same,NCL812 MBC: number of bacteria growing after 24 hours per ml of sample,"VRE isolates; VRE 37c, NCL812 64 μg/ml",M
same,NCL812 MBC: number of bacteria growing after 24 hours per ml of sample,"VRE isolates; VRE 37c, NCL812 […]",M
same,"bacterial growth, turbidimetric growth curve","[4]; ATCC 49775, 1× and 4× the MIC, microdilution, up to 24 h",no visible bacterial growth
same,remained bactericidal until (then regrowth),"[4]; ATCC 49775, 10 mL macrodilution, 1× and 4× the MIC",8 to 12 h
same,"bacterial regrowth observed at, after antimicrobial addition",[4]; ATCC 49775 time-kill,12 h
same,inhibition of cell wall synthesis,[5]; 4 fold the MIC,approximately 68%
same,inhibition of cell wall synthesis,[5]; 8 fold the MIC,~52%
same,solubility,[6],complete solubility
